Test results: ChEMBL document CHEMBL6134796, “Development and Evaluation of Indole-Based Phospholipase D Inhibitors for Lung Cancer Immunotherapy” (J Med Chem, 2025)

Key:
HCT-116 [1] = test: Residual PLD activity in human HCT-116 cells at 10 uM measured after 1 hr by amplex red phospholipase D assay as % of control
HCT-116 [2] = test: Cytotoxicity against human HCT-116 cells assessed as inhibition of cell growth incubated for 48 hrs by WST-1 assay; format: functional, cell-based; details: HCT-116, 48 h
A549 = test: Cytotoxicity against human A549 cells assessed as inhibition of cell growth incubated for 48 hrs by WST-1 assay; format: functional, cell-based; details: A549, 48 h
[3] = Inhibition of PLD in human A549 cells measured after 1 hr by amplex red phospholipase D assay; format: cell-based

| Structure (SMILES) | level, % of control (HCT-116 [1]) | further results |
| --- | --- | --- |
| O=C(Nc1ccc(F)cc1)c1cc2cc(F)ccc2[nH]1 | 53.2% | – |
| O=C(Cc1c[nH]c2ccccc12)Nc1cc(C(F)(F)F)cc(C(F)(F)F)c1 | 53% | – |
| O=C(Nc1ccc(O)c(O)c1)c1c[nH]c2ccccc12 | 51.1% | – |
| O=C(Cc1c[nH]c2ccccc12)Nc1ccc(O)c(O)c1 | 54.4% | – |
| C[C@@H](CN1CCC(n2c(=O)[nH]c3cc(Cl)ccc32)CC1)NC(=O)c1ccc2ccccc2c1 | 30.4% | – |
| COc1ccc(CNC(=O)c2cc3cc(F)ccc3[nH]2)cc1OC | 48% | – |
| O=C(Nc1ccc(O)c(O)c1)c1cc2cc(F)ccc2[nH]1 | – | IC50 (HCT-116 [2]): > 50 µM; IC50 (A549): > 200 µM; IC50 [3]: 4.31 µM |
| O=C(Nc1cc(F)cc(F)c1)c1cc2cc(F)ccc2[nH]1 | 51.1% | – |
| O=C(Nc1cccc(C(F)(F)F)c1)c1cc2cc(F)ccc2[nH]1 | 47.6% | – |
| O=C(Nc1cc(C(F)(F)F)cc(C(F)(F)F)c1)c1cc2cc(C(F)(F)F)ccc2[nH]1 | 45.8% | – |
| COc1ccc(NC(=O)c2cc3cc(F)ccc3[nH]2)cc1OC | 52.2% | – |
| O=C(CCCc1c[nH]c2ccccc12)Nc1cc(C(F)(F)F)cc(C(F)(F)F)c1 | 55.5% | – |
| O=C(CCc1c[nH]c2ccccc12)Nc1cccc(F)c1 | 50.6% | – |
| O=C(Oc1cc(C(F)(F)F)cc(C(F)(F)F)c1)c1cc2cc(F)ccc2[nH]1 | 33.4% | IC50 (HCT-116 [2]): > 50 µM; IC50 (A549): 50 µM; IC50 [3]: 3.1 µM |
